From US20050026949A1, “Methods of therapeutic treatment using amounts of retinoids without regard to body weight” (Allergan, Inc., priority 2003, published 2005)

Tests used:
[1] = tested on: patients having nodulocystic acne; assay: Two placebo-controlled dose-ranging safety studies of oral tazarotene (Example 5); format: in vivo, human; settings: for incidence of joint disorder: placebo 0%; for incidence of arthralgia: placebo 6%; for incidence of myalgia: placebo 9%; for incidence of asthenia: placebo 13%; for incidence of dry skin: placebo 19%; for incidence of headache: placebo 28%; for incidence of cheilitis: placebo 31%; for depression: placebo 1 (2%); for emotional lability (all cases mild): placebo 2 (4%)
Description: Two placebo-controlled dose-ranging studies are conducted to evaluate the safety of oral tazarotene in patients having nodulocystic acne. In the first study, patients receive orally administered tazarotene at daily doses of 0.4 mg to 2.8 mg in 96 (71+25) patients (12 weeks treatment plus 12 weeks post-treatment). In the second study, daily doses of 0.75 mg to 6 mg tazarotene are administered to 181 patients (24 weeks treatment plus 12 weeks post-treatment).

[2] = PK and PD interaction studies of oral tazarotene with oral contraceptives (Example 8); format: in vivo, human
Description: It is the objective of this study to determine if there are pharmacokinetic (PK) and pharmacodynamic (PD) interactions between tazarotene and commonly prescribed oral contraceptives (OCs) when coadministered together.
Three separate clinical studies are conducted to evaluate the PK and PD interactions of oral tazarotene and OCs in healthy volunteers. Two studies evaluate daily doses of norethindrone (NE)/ethinyl estradiol (EE) with daily doses of tazarotene 1.1 mg (N=27) and 6 mg (N=29). The third study assesses the daily doses of norgestimate (NGM)/EE with daily doses of tazarotene 6 mg (N=26). OCs are administered for three consecutive menstrual cycles. Daily doses of tazarotene are started during the 2nd cycle and continued through the end of the studies. PK parameters for EE, NE, and NGM (AUC0-24 and Cmax) are determined before tazarotene dosing and after tazarotene dosing on day 6 of the 2nd and 3rd cycles. Serum concentrations of luteinizing hormone (LH) and follicle-stimulating hormone (FSH)-markers of contraceptive efficacy are also evaluated before tazarotene dosing and after tazarotene dosing on days 2, 4, and 6 of the 2nd and 3rd cycles. Serum progesterone levels are assessed on days 18 and 20 of the 2nd and 3rd cycles.
The plasma of each subject is tested for Cmax and AUC of tazarotenic acid, the primary active retinoid agent in systemic circulation as the result of the oral administration of tazarotene.

## CCOC(=O)c1ccc(C#Cc2ccc3c(c2)C(C)(C)CCS3)nc1 [tazarotene]
[1]; 0.4 mg to 6 mg daily
  changes in urinalysis, chemistry, or hematology measures (including liver function tests, triglycerides, total cholesterol, HDL cholesterol): no consistent dose-related clinically significant changes
  ligament calcification, osteophyte formation, or changes in serum bone alkaline phosphatase, serum amino terminal telopeptides, or bone density: not associated with any clinically significant
[1]; 0.75 mg
  patients withdrawing due to adverse events: 2 patients
[1]; 2.8 mg, n=11
  incidence of joint disorder: 27%
  incidence of arthralgia: 9%
  incidence of myalgia: 0%
  incidence of asthenia: 0%
  incidence of dry skin: 18%
  incidence of headache: 9%
  incidence of cheilitis: 64%
[1]; 3 mg
  patients withdrawing due to adverse events: 2 patients
[1]; 3 mg group
  cheilitis, mild: 25 patients
  cheilitis, moderate: 3 patients
  cheilitis, severe: 1 patient
  dry skin, mild: 11 patients
  dry skin, moderate: 2 patient
  emotional lability (all cases mild): 1 (3%) patient (%)
[1]; 3 mg group (2 mild, 1 severe)
  depression: 3 (8%) patients (%)
[1]; 3 mg, n=37
  incidence of joint disorder: 14%
  incidence of arthralgia: 8%
  incidence of myalgia: 16%
  incidence of asthenia: 19%
  incidence of dry skin: 35%
  incidence of headache: 19%
  incidence of cheilitis: 78%
[1]; 6 mg
  patients withdrawing due to adverse events: 1 patients
[1]; 6 mg group
  cheilitis, mild: 27 patients
  cheilitis, moderate: 6 patients
  cheilitis, severe: 1 patient
  dry skin, mild: 17 patients
  dry skin, moderate: 1 patient
  depression: none
  emotional lability (all cases mild): 5 (14%) patient (%)
[1]; 6 mg, n=36
  incidence of joint disorder: 19%
  incidence of arthralgia: 28%
  incidence of myalgia: 25%
  incidence of asthenia: 19%
  incidence of dry skin: 50%
  incidence of headache: 36%
  incidence of cheilitis: 94%
[1]; 7/277, all groups incl. placebo
  patients withdrawing from either study due to adverse events: 2.5%
[1]; all groups
  dry skin, severe: No patient has severe dry skin
[2]; orally, up to 6 mg once daily
  effect on PK or efficacy of NE/EE and NGM/EE oral contraceptives: does not affect
[2]; tazarotene 1.1 mg or 6 mg daily with NE/EE, 6 mg daily with NGM/EE
  90% confidence intervals of AUC0-24 and Cmax for EE, NE, and NGM: within the 80-125% boundary
[2]; tazarotene coadministered with oral contraceptives
  90% confidence intervals of FSH and LH: generally within the 80-125% boundary
[2]; tazarotene coadministered with oral contraceptives, days 18 and 20 of 2nd and 3rd cycles
  90% confidence intervals of progesterone concentrations: within the 80-125% boundary
[2]; tazarotene coadministered with oral contraceptives, follicular phase
  serum FSH and LH levels: remain within the normal ranges
